# Assay results published in article PMC8951016, “Computational Design and Biological Evaluation of Analogs of Lupin Peptide P5 Endowed with Dual PCSK9/HMG-CoAR Inhibiting Activity” (Pharmaceutics, 2022).
# How the values were obtained:
# [1] = system: LDLR on HepG2 cell surface; assay: In-cell western (ICW), LDLR on HepG2 surface in the presence of PCSK9; format: cell-based, human; settings: PCSK9 4 μg/mL, 2 h; vs untreated control cells; p < 0.001
# Protocol: For the experiments, a total of 3 × 10^4 HepG2 cells/well were seeded in 96-well plates and treated with 4.0 μg/mL PCSK9-WT and 4.0 μg/mL PCSK9 + peptides P5 and/or P5 analogs (50 µM) and vehicle (H2O) for 2 h at 37 °C under 5% CO2 atmosphere. Thus, cells underwent to ICW assay following conditions already optimized. See Supplementary Materials for detailed information. […]
# cLex Co., Nagano, Japan). The peptides (P5, P5-Best, P-H6A, and P5-S7A) were synthe-sized by the company GeneScript (Piscataway, NJ, USA) at >95% purity. The antibody against HMG-CoAR was bought from Abcam (Cambridge, UK). […]
# HMG-CoAR Aactivity Assay. […] Subsequently, the samples were mixed and the absorbance at 340 nm read by the microplate reader Synergy H1 (Winooski, VT, USA) at time 0 and 10 min. The HMG-CoAR-dependent oxidation of NADPH and the inhibition properties of peptides were measured by absorbance reduction, which is directly proportional to enzyme activ- […]
# In Vitro PCSK9-LDLR Binding Assay. […] The reaction was stopped with 2.0 M sulfuric acid and the absorbance at 450nm was measured using the Synergy H1 fluorescent plate reader […]
# LDL uptake, HepG2 cells [2] = assay: Fluorescent LDL uptake in HepG2 cells in the presence of PCSK9; format: cell-based, human; settings: PCSK9 4 μg/mL, 2 h; vs untreated control cells; p < 0.05
# Protocol: HepG2 cells (3 × 10^4/well) were seeded in 96-well plates and kept in complete growth medium for 2 days before treatment. The third day, cells were washed with PBS and then starved overnight (O/N) in DMEM without FBS and antibiotics. After starvation, they were treated with 4.0 μg/mL PCSK9 and 4.0 μg/mL PCSK9 + P5 and P5 analogs peptides (50 µM), and vehicle (H2O) for 2 h with at 37 °C under 5% CO2 atmosphere. Fluorescent LDL-uptake was finally assessed following optimized protocol. See Supplementary Materials for further details.
# PBS for 1.5 h at RT. LDLR primary antibody solution (1:3000 in 5% BSA in PBS, 25 µL/well) was incubated O/N at +4 °C. […] The reaction was stopped with 2 M H2SO4 and then the absorbance at 450 nm was measured using the microplate reader Synergy H1 (Winoo-ski, VT, USA). After the read, cells were stained by adding 1 X Janus Green stain, incubat-ing for 5 min at RT. […]
# Afterward 100 µL 0.5 M HCl for well were added and incubated for 10 min. After 10 sec-onds shaking, the OD at 595 nm was measured using the microplate reader Synergy H1 […]
# Fluorescent LDL Uptake. […] The degree of LDL uptake was measured using the Synergy H1 fluo-rescent plate reader (Winooski, VT, USA) (excitation and emission wavelengths 540 and 570 nm, respectively). Fluorescent LDL-uptake was finally assessed following optimized […]
# LDLR = system: LDLR; design: method as in 3 sources, ref 48 = [48]; doi:10.1111/jfbc.12757; 48. Lammi C. Zanoni C. Arnoldi A. Aiello G. […] (P3), a peptide from lupin protein, absorbed by Caco-2 cells, modulates cholesterol metabolism in HepG2 cells via SREBP-1 activation J. Food B ||| ref 22 = [22]; doi:10.1016/j.jff.2017.02.009; 22. Zanoni C. Aiello G. Arnoldi A. Lammi C. Investigations on the hypocholesterolaemic activity of […] and LTFPGSAED, two peptides from lupin β-conglutin: Focus on LDLR and PCSK9 pathways J. Fu ||| ref 24 = [24]; PMID 33808034; doi:10.3390/nu13030863; 24. Lammi C. Aiello G. Bollati C. Li J. Bartolomei M. Ranaldi G. Ferruzza S. Fassi E.M.A. Grazioso G. Sambuy Y. Trans-Epithelial Transport, Metabolism, and Biological Activity Assessment of the Multi-; settings: via compensatory upregulation of SREBP-1; cited from earlier work
# SREBP-2 = settings: cited from earlier work
# Protocol: Further experiments were performed to verify the ability of these P5 analogs to modulate the LDLR pathway in HepG2 cells.
# [3] = biological target: T1, HMG-CoAR (catalytic domain) (Homo sapiens, UniProt P04035); settings: cited from earlier work
# T1 construct: finally the HMG-CoAR (cata- lytic domain) (2 µL); purchased Sigma-Aldrich
# T1 sequence (P04035 426-888 limits assumed): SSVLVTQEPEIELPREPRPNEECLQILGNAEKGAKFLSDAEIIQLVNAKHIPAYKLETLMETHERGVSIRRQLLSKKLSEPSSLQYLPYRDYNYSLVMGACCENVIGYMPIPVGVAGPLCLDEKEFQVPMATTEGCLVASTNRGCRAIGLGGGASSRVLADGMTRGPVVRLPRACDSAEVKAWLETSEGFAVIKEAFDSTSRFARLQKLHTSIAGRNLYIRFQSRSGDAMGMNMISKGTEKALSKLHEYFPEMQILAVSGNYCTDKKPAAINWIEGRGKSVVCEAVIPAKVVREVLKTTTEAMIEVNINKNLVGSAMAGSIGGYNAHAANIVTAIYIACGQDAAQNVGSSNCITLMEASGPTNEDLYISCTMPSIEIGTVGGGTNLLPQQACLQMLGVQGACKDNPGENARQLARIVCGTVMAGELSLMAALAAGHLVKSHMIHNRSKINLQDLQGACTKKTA
# [4] = system: LDLR on HepG2 cell surface; settings: cellular level; cited from earlier work
# LDL uptake, HepG2 cells [5] = settings: cited from earlier work
# PCSK9 = system: PCSK9; design: method as in 3 sources, ref 49 = [49]; PMID 35011066; doi:10.3390/nu14010193; 49. Macchi C. Greco M.F. Ferri N. Magni P. Arnoldi A. Corsini A. Sirtori C.R. Ruscica M. Lammi C. Impact of Soy β-Conglycinin Peptides on PCSK9 Protein Expression in HepG2 Cells Nutrients 2021 14 193 ||| ref 22 = [22]; doi:10.1016/j.jff.2017.02.009; 22. Zanoni C. Aiello G. Arnoldi A. Lammi C. Investigations on the hypocholesterolaemic activity of […] and LTFPGSAED, two peptides from lupin β-conglutin: Focus on LDLR and PCSK9 pathways J. Fu ||| ref 24 = [24]; PMID 33808034; doi:10.3390/nu13030863; 24. Lammi C. Aiello G. Bollati C. Li J. Bartolomei M. Ranaldi G. Ferruzza S. Fassi E.M.A. Grazioso G. Sambuy Y. Trans-Epithelial Transport, Metabolism, and Biological Activity Assessment of the Multi-; settings: 250 µM, via modulation of HNF1-α; cited from earlier work
# mature PCSK9 (secreted) = system: mature PCSK9 (secreted); design: method as in PMID 35011066; settings: 250 µM, via modulation of HNF1-α; cited from earlier work
substance,measurement,setting,value
PCSK9: PCSK9 added at 4 µg/mL to HepG2 cells,decrease of LDLR level by PCSK9 alone,[1],25.4 ± 1.6%
same,reduction in uptake of fluorescent LDL by PCSK9 alone,"LDL uptake, HepG2 cells [2]",43.6 ± 9.6%
"YDFYPSSTKDQQS [Peptide P3, a peptide from lupin protein]","LDLR protein levels (P3, words)",LDLR,increase in the LDLR protein levels
same,"SREBP-2 activation (P3, words)",SREBP-2,without SREBP-2 activation
same,"HMG-CoAR activity (P3, words)",[3],inhibits HMG-CoAR activity
TVFTSWEEYLDWV [Pep2-8],restoration of LDLR protein levels vs P5 analogs,[4],less efficient than P5 analogs
same,restoration of hepatocyte LDL absorption vs P5 analogs,"LDL uptake, HepG2 cells [5]",less efficient than P5 analogs
YVVNPDNNEN [peptide from soybean β-Conglycinin],"PCSK9 protein level (YVVNPDNNEN, words)",PCSK9,reduces the PCSK9 protein level
same,"HMG-CoAR inhibition (YVVNPDNNEN, words)",[3],able to inhibit the HMG-CoAR activity
same,"PCSK9 secretion (YVVNPDNNEN, words)",mature PCSK9 (secreted),reduces the PCSK9 protein level and its secretion
